The results in this text go back to ChEMBL document CHEMBL1130436, “Synthesis and opioid activity of conformationally constrained dynorphin A analogues. 2. Conformational constraint in the "address" sequence” (J Med Chem, 1997).

The species named for experiment [1] is Cavia porcellus. Briefly: Opioid activity in guinea pig ileum. It is filed as functional.
Experiment [2] addresses T1, Kappa-type opioid receptor (Cavia porcellus, UniProt P41144). Briefly: Binding affinity of compound was measured on Opioid receptor kappa 1 by competitive inhibition of radioligand [3H]diprenorphine using cloned receptors transiently expressed on COS-7 (monkey kidney) cells. Format: cell-based.
Experiment [3] deals with T2, Mu-type opioid receptor (Cavia porcellus, UniProt P97266). Briefly: Binding affinity of compound was measured on Opioid receptor mu 1 by competitive inhibition of radioligand [3H]DAMGO using cloned receptors transiently expressed on COS-7 (monkey kidney) cells. Format: cell-based.
The target in experiment [4] is T3, Delta-type opioid receptor (Homo sapiens, UniProt P41143). As to the kind of experiment: Binding affinity of compound was measured on Opioid receptor delta 1 by competitive inhibition of radioligand [3H]DPDPE using cloned receptors transiently expressed on COS-7 (monkey kidney) cells. It is filed as cell-based.
The target in experiment [5] is T1, Kappa-type opioid receptor. Briefly: Binding affinity to Opioid receptor kappa 1 by competitive inhibition of radioligand [3H]diprenorphine using cloned receptors transiently expressed on CHO cells. It is filed as cell-based.
The target of experiment [6] is T2, Mu-type opioid receptor. As to the kind of experiment: Binding affinity to Opioid receptor mu 1 by competitive inhibition of radioligand [3H]DAMGO using cloned receptors transiently expressed on CHO cells. Format: cell-based.
The target of experiment [7] is T3, Delta-type opioid receptor. Briefly: Binding affinity to Opioid receptor delta 1 by competitive inhibition of radioligand [3H]DPDPE using cloned receptors transiently expressed on CHO cells. Format: cell-based, Cavia porcellus.

For the compound `CC[C@H](C)[C@H](NC(=O)[C@H](CCCNC(=N)N)NC(=O)[C@@H]1CCCNC(=O)C[C@@H](NC(=O)CNC(=O)[C@@H](N)Cc2ccc(O)cc2)C(=O)N[C@@H](Cc2ccccc2)C(=O)N[C@@H](CC(C)C)C(=O)N1)C(=O)N[C@@H](CCCNC(=N)N)C(=O)N1CCC[C@H]1C(=O)N[C@@H](CCCCN)C(=O)N[C@@H](CC(C)C)C(=O)N[C@@H](CCCCN)C(N)=O`, in experiment [1], inhibition was half-maximal at 2700 nM (IC50). Besides, the Ki (as a rule, a measure of affinity in units of concentration, obtained from inhibition or displacement) in experiment [2] was 200 nM; in experiment [3], 320 nM; in experiment [4], 320 nM.

For the compound `CC[C@H](C)[C@H](NC(=O)[C@H](CCCNC(=N)N)NC(=O)[C@H](CCCNC(=N)N)NC(=O)[C@H](CC(C)C)NC(=O)[C@H](Cc1ccccc1)NC(=O)[C@@H](CC(=O)O)NC(=O)CNC(=O)[C@@H](N)Cc1ccc(O)cc1)C(=O)N[C@@H](CCCNC(=N)N)C(=O)N1CCC[C@H]1C(=O)N[C@@H](CCCCN)C(=O)N[C@@H](CC(C)C)C(=O)N[C@@H](CCCCN)C(N)=O`, half-maximal inhibition in experiment [1] (IC50) was put at 440 nM. In addition, the inhibitory constant (Ki) turned out to be 28 nM in experiment [5], 180 nM in experiment [6] and 430 nM in experiment [7].

Regarding `CC[C@H](C)[C@H](NC(=O)[C@H](CCCNC(=N)N)NC(=O)[C@H](CN)NC(=O)[C@H](CC(C)C)NC(=O)[C@H](Cc1ccccc1)NC(=O)[C@@H](CC(=O)O)NC(=O)CNC(=O)[C@@H](N)Cc1ccc(O)cc1)C(=O)N[C@@H](CCCNC(=N)N)C(=O)N1CCC[C@H]1C(=O)N[C@@H](CCCCN)C(=O)N[C@@H](CC(C)C)C(=O)N[C@@H](CCCCN)C(N)=O`, it took 2800 nM to reach half-maximal inhibition in experiment [1] (IC50). In addition, the inhibition constant Ki came to 300 nM in experiment [2] (cos-7), 100 nM in experiment [3] (cos-7) and 1300 nM in experiment [4] (cos-7).

Turning to `CC[C@H](C)[C@@H]1NC(=O)[C@H](CCCNC(=N)N)NC(=O)[C@H](NC(=O)[C@H](CC(C)C)NC(=O)[C@H](Cc2ccccc2)NC(=O)CNC(=O)CNC(=O)[C@@H](N)Cc2ccc(O)cc2)CC(=O)NCC[C@@H](C(=O)N2CCC[C@H]2C(=O)N[C@@H](CCCCN)C(=O)N[C@@H](CC(C)C)C(=O)N[C@@H](CCCCN)C(N)=O)NC1=O`, the Ki in experiment [5] was 2.5 nM; in experiment [6] it was 4.8 nM; in experiment [7], 180 nM.

For the compound `CC[C@H](C)[C@@H]1NC(=O)[C@H](CCCN=C(N)N)NC(=O)[C@H](NC(=O)[C@H](CC(C)C)NC(=O)[C@H](Cc2ccccc2)NC(=O)CNC(=O)CNC(=O)[C@@H](N)Cc2ccc(O)cc2)CC(=O)N[C@H](C(=O)N2CCC[C@H]2C(=O)N[C@@H](CCCCN)C(=O)N[C@@H](CC(C)C)C(=O)N[C@@H](CCCCN)C(=O)O)CCNC1=O`, the IC50 (in general, the concentration that gives 50% inhibition) in experiment [1] amounted to 22 nM.

In experiment [1], `CC[C@H](C)[C@@H]1NC(=O)[C@H](CCCN=C(N)N)NC(=O)[C@H](NC(=O)[C@H](CC(C)C)NC(=O)[C@H](Cc2ccccc2)NC(=O)CNC(=O)CNC(=O)[C@@H](N)Cc2ccc(O)cc2)CC(=O)N[C@H](C(=O)N2CCC[C@H]2C(=O)N[C@@H](CCCCN)C(=O)N[C@@H](CC(C)C)C(=O)N[C@@H](CCCCN)C(=O)O)CNC1=O` yielded an IC50 of 46 nM.

As for `CC[C@H](C)[C@@H]1NC(=O)[C@H](CCCNC(=N)N)NC(=O)[C@H](NC(=O)[C@H](CC(C)C)NC(=O)[C@H](Cc2ccccc2)NC(=O)CNC(=O)CNC(=O)[C@@H](N)Cc2ccc(O)cc2)CC(=O)NC[C@@H](C(=O)N2CCC[C@H]2C(=O)N[C@@H](CCCCN)C(=O)N[C@@H](CC(C)C)C(=O)N[C@@H](CCCCN)C(N)=O)NC1=O`, the inhibition constant (Ki) is 2.6 nM in experiment [5] (cho), 4.4 nM in experiment [6] (cho) and 48 nM in experiment [7] (cho).

As for `CC(C)C[C@H](NC(=O)[C@H](CCCCN)NC(=O)[C@@H]1CCCN1C(=O)[C@H](CCCNC(=N)N)NC(=O)[C@@H]1CCNC(=O)C[C@@H](NC(=O)[C@H](Cc2ccccc2)NC(=O)CNC(=O)CNC(=O)[C@@H](N)Cc2ccc(O)cc2)C(=O)N[C@@H](CCCNC(=N)N)C(=O)N[C@@H](CCCNC(=N)N)C(=O)N1)C(=O)N[C@@H](CCCCN)C(N)=O`, the Ki in experiment [5] stood at 14 nM; in experiment [6], 40 nM; in experiment [7], 4100 nM.

In experiment [1], `CC(C)C[C@H](NC(=O)[C@H](CCCCN)NC(=O)[C@@H]1CCCN1C(=O)[C@H](CCCN=C(N)N)NC(=O)[C@@H]1CCNC(=O)[C@H](CCCN=C(N)N)NC(=O)[C@H](CCCN=C(N)N)NC(=O)[C@H](NC(=O)[C@H](Cc2ccccc2)NC(=O)CNC(=O)CNC(=O)[C@@H](N)Cc2ccc(O)cc2)CC(=O)N1)C(=O)N[C@@H](CCCCN)C(=O)O` displayed an IC50 of 1300 nM.

In the case of `CC[C@H](C)[C@H](NC(=O)[C@H](CCCNC(=N)N)NC(=O)[C@H](CCCNC(=N)N)NC(=O)[C@@H](CC(=O)O)NC(=O)[C@H](Cc1ccccc1)NC(=O)CNC(=O)CNC(=O)[C@@H](N)Cc1ccc(O)cc1)C(=O)N[C@@H](CCCNC(=N)N)C(=O)N1CCC[C@H]1C(=O)N[C@@H](CCCCN)C(=O)N[C@@H](CC(C)C)C(=O)N[C@@H](CCCCN)C(N)=O`, the Ki amounted to 58 nM in experiment [5], 6.1 nM in experiment [6] and 1300 nM in experiment [7].

Turning to `CC[C@H](C)[C@H](NC(=O)[C@H](CCCNC(=N)N)NC(=O)[C@H](CCCNC(=N)N)NC(=O)[C@@H](CC(=O)O)NC(=O)[C@H](Cc1ccccc1)NC(=O)CNC(=O)CNC(=O)[C@@H](N)Cc1ccc(O)cc1)C(=O)N[C@@H](CCCNC(=N)N)C(=O)N1CCC[C@H]1C(=O)N[C@@H](CCCCN)C(=O)N[C@@H](CC(C)C)C(=O)N[C@@H](CCCCN)C(=O)O`, the half-maximal inhibitory concentration (IC50) in experiment [1] worked out at 1400 nM.

Turning to `CC(C)C[C@H](NC(=O)[C@H](CCCCN)NC(=O)[C@@H]1CCCN1C(=O)[C@H](CCCNC(=N)N)NC(=O)[C@H](CN)NC(=O)[C@H](CCCNC(=N)N)NC(=O)[C@H](CCCNC(=N)N)NC(=O)[C@@H](CC(=O)O)NC(=O)[C@H](Cc1ccccc1)NC(=O)CNC(=O)CNC(=O)[C@@H](N)Cc1ccc(O)cc1)C(=O)N[C@@H](CCCCN)C(N)=O`, the Ki came out at 20 nM in experiment [5], 8.3 nM in experiment [6] and 1600 nM in experiment [7].

Compound `CC[C@H](C)[C@H](NC(=O)[C@H](CCCNC(=N)N)NC(=O)[C@@H](CC(=O)O)NC(=O)[C@H](CC(C)C)NC(=O)[C@H](Cc1ccccc1)NC(=O)CNC(=O)CNC(=O)[C@@H](N)Cc1ccc(O)cc1)C(=O)N[C@@H](CN)C(=O)N1CCC[C@H]1C(=O)N[C@@H](CCCCN)C(=O)N[C@@H](CC(C)C)C(=O)N[C@@H](CCCCN)C(N)=O` registered a half-maximal inhibitory concentration (IC50) in experiment [1] of 74 nM. For the same compound, the inhibitory constant (Ki) came out at 12 nM in experiment [5] (cho), 1.5 nM in experiment [6] (cho) and 8.2 nM in experiment [7] (cho).

In experiment [1], `CC[C@H](C)[C@H](NC(=O)[C@H](CCCNC(=N)N)NC(=O)[C@@H](CC(=O)O)NC(=O)[C@H](CC(C)C)NC(=O)[C@H](Cc1ccccc1)NC(=O)CNC(=O)CNC(=O)[C@@H](N)Cc1ccc(O)cc1)C(=O)N[C@@H](CCCNC(=N)N)C(=O)N1CCC[C@H]1C(=O)N[C@@H](CCCCN)C(=O)N[C@@H](CC(C)C)C(=O)N[C@@H](CCCCN)C(N)=O` registered a half-inhibitory concentration (IC50) of 29 nM. Further, the results for the inhibition constant (Ki) in experiment [5], in experiment [6] and in experiment [7] were 8 nM, 1.2 nM and 22 nM, respectively.

Take `CC(C)C[C@H](NC(=O)[C@H](CCCCN)NC(=O)[C@@H]1CCCN1C(=O)[C@H](CCCNC(=N)N)NC(=O)[C@@H]1CNC(=O)C[C@@H](NC(=O)[C@H](Cc2ccccc2)NC(=O)CNC(=O)CNC(=O)[C@@H](N)Cc2ccc(O)cc2)C(=O)N[C@@H](CCCNC(=N)N)C(=O)N[C@@H](CCCNC(=N)N)C(=O)N1)C(=O)N[C@@H](CCCCN)C(N)=O`: the values for the Ki in experiment [5], in experiment [6] and in experiment [7] were 8 nM, 75 nM and 3300 nM, respectively.

The compound `CC(C)C[C@H](NC(=O)[C@H](CCCCN)NC(=O)[C@@H]1CCCN1C(=O)[C@H](CCCN=C(N)N)NC(=O)[C@@H]1CNC(=O)[C@H](CCCN=C(N)N)NC(=O)[C@H](CCCN=C(N)N)NC(=O)[C@H](NC(=O)[C@H](Cc2ccccc2)NC(=O)CNC(=O)CNC(=O)[C@@H](N)Cc2ccc(O)cc2)CC(=O)N1)C(=O)N[C@@H](CCCCN)C(=O)O` displayed an IC50 in experiment [1] of over 5000 nM.

Compound `CC[C@H](C)[C@@H]1NC(=O)[C@H](CCCNC(=N)N)NC(=O)[C@H](NC(=O)[C@H](CC(C)C)NC(=O)[C@H](Cc2ccccc2)NC(=O)CNC(=O)CNC(=O)[C@@H](N)Cc2ccc(O)cc2)CC(=O)NCCC[C@@H](C(=O)N2CCC[C@H]2C(=O)N[C@@H](CCCCN)C(=O)N[C@@H](CC(C)C)C(=O)N[C@@H](CCCCN)C(N)=O)NC1=O` showed a half-maximal inhibitory concentration (IC50) in experiment [1] of 6.8 nM. Further, the inhibition constant Ki in experiment [5] was 1.5 nM; in experiment [6] it was 3.2 nM; in experiment [7] it was 28 nM.

`CC(C)C[C@H](NC(=O)[C@H](CCCCN)NC(=O)[C@@H]1CCCN1C(=O)[C@H](CCCN=C(N)N)NC(=O)[C@@H]1CCCNC(=O)[C@H](CCCN=C(N)N)NC(=O)[C@H](CCCN=C(N)N)NC(=O)[C@H](NC(=O)[C@H](Cc2ccccc2)NC(=O)CNC(=O)CNC(=O)[C@@H](N)Cc2ccc(O)cc2)CC(=O)N1)C(=O)N[C@@H](CCCCN)C(=O)O` registered a concentration for half-maximal inhibition (IC50) in experiment [1] of 530 nM.

For the compound `CC(C)C[C@H](NC(=O)[C@H](CCCCN)NC(=O)[C@@H]1CCCN1C(=O)[C@H](CCCNC(=N)N)NC(=O)[C@@H]1CCCNC(=O)C[C@@H](NC(=O)[C@H](Cc2ccccc2)NC(=O)CNC(=O)CNC(=O)[C@@H](N)Cc2ccc(O)cc2)C(=O)N[C@@H](CCCNC(=N)N)C(=O)N[C@@H](CCCNC(=N)N)C(=O)N1)C(=O)N[C@@H](CCCCN)C(N)=O`, the Ki in experiment [5] came out at 12 nM; in experiment [6], 62 nM; in experiment [7] it was 1900 nM.

In experiment [1], `CC[C@H](C)[C@H](NC(=O)[C@H](CCCNC(=N)N)NC(=O)[C@H](CCCNC(=N)N)NC(=O)[C@H](CC(C)C)NC(=O)[C@H](Cc1ccccc1)NC(=O)CNC(=O)CNC(=O)[C@@H](N)Cc1ccc(O)cc1)C(=O)N[C@@H](CCCNC(=N)N)C(=O)N1CCC[C@H]1C(=O)N[C@@H](CCCCN)C(=O)N[C@@H](CC(C)C)C(=O)N[C@@H](CCCCN)C(=O)O` [ANALOG OF DYNORPHIN A] registered an IC50 of 0.19 nM. Also, the inhibition constant (Ki) in experiment [5] came out at 0.31 nM; in experiment [6], 0.92 nM; in experiment [7] it was 28.4 nM.
